PMC4761914, “Improvement of pyrazolo[3,4-d]pyrimidines pharmacokinetic properties: nanosystem approaches for drug delivery” (Scientific Reports, 2016)
Like-named read-outs stand apart in the source and are kept apart here.

Legend:
SH-SY5Y NB cells = experiment: Antiproliferative activity / cytotoxicity, Trypan blue assay; type: cell-based; details: Homo sapiens
Method: In vitro experiments were carried out using the human NB cell line SH-SY5Y. Cells were purchased from American Type Culture Collection (ATCC, Manassas, VA, USA) and were cultured in DMEM/F12 1:1 medium supplemented with 10% FBS, 2 mM L-glutamine and 10000 units/mL Penicillin/Streptomycin at 37 °C in 5% CO2 atmosphere. In order to determine the antiproliferative effect of drugs (1–4) and nanosystems, SH-SY5Y cells were seeded at 10^5 cells/well density and treated with albumin (PBS solution, pH 7.4) or empty liposomes (0.9% NaCl solution, pH 7.4), compounds encapsulated with albumin (PBS solution, pH 7.4) or liposomes LP-1, LP-3 and LP-4 (0.9% NaCl solution, pH 7.4) and free compounds 1, 3 and 4 (DMSO solution) at increasing concentrations (0.1 μM, 1.0 μM, 10 μM and 50 μM). IC50 determination for LP-2 and compound 2 was performed testing the following concentrations as well: 0.01 μM, 0.05 μM, 0.5 μM and 5 μM. The cultures were maintained at 37 °C in 5% v/v CO2 for 24, 48 and 72 h. Cell number and viability were evaluated using the Bürker chamber, after treatment with Trypan Blue. IC50 was calculated by GraphPad Prism 6.0 software using the best fitting sigmoid curve.

[1] = design: method as in PMID 25469771, PMID 21050441, PMID 21856155; details: percentage of unmodified drug, human liver microsomes, 37 °C, 60 min; cited from earlier work
[2] = design: method as in PMID 25469771, PMID 21050441, PMID 21856155; details: cited from earlier work; for PAMPA: pH 7.4, 5 hours, room temperature; for MR (Membrane Retention): percentage of compound unable to reach the acceptor compartment
Src = target: Src; design: method as in PMID 25469771, PMID 21050441, PMID 21856155; details: cited from earlier work
[3] = Entrapment efficiency by HPLC-UV-MS after disruption of nanoparticles; type: physicochemical; details: compound encapsulated in albumin nanoparticles
Method: The albumin nanoparticles were prepared by mixing 100 μL of compound solution in EtOH (1 mg/mL) with 900 μL of HSA solution in PBS (pH 7.4, 25 mM) (5 mg/mL)[52]. Cysteine was added up to a final concentration of 5 mg/mL, and the resulting solution was kept at 37 °C, for 45 min. The excess of cysteine was eliminated by dialysis using a cellulose membrane (capacity 60 mL/ft, cut-off 14 kDa, diameter 16 mm, width 25mm). D,L-glyceraldehyde was added to this solution, to a final concentration of 5 μM[53]. The sample was then filtered through a nylon syringe filter with pores of 0.2 μm (Acrodisc 25 mm Syringe Filter) to obtain a sterile solution of the drug-albumin nanoparticles. The concentration of the compound in the final sample was determined by HPLC-UV-MS (HPLC-UV-MS method in the supporting material), after denaturation of the protein by acetonitrile and centrifugation (4500 rpm, 15 min, 4 °C).
The method developed by A.D. Bangham, namely thin layer evaporation, was used for the preparation of LP-1, LP-2, LP-3 and LP-4. Lipids DPPC, Chol and MPEG-2000-DPPE Na (molar ratio 20:10:1) were dissolved in a mixture of CHCl3:MeOH = 3:1 (3 mL, round-bottomed flask). A 1 mM solution of each compound (1, 2, 3, 4) in CHCl3:MeOH = 3:1 was prepared. […] The drug concentration was determined after disruption of liposomes by treatment with ethanol at 40 °C (1:1 = v/v). The compound was extracted and quantified by HPLC-UV-MS (HPLC-UV-MS method in the supporting material). […]
E.E.%c NDd NDd NDd NDd NDd NDd NDd NDd NDd NDd NDd aCalculated on the basis of the total amount of compound dissolved in the organic solvent; bat 37 °C; c at 45°C. dND: compound not detected after filtration 0.2 µm syringe filter. […]
The percentage of entrapment efficacy was calculated with the following equation: […]
where, Fi is the concentration of compound determined in the nano-preparation (evaluated by HPLC-UV-MS, after disruption of nanoparticles) and Ft is the theoretical final concentration (Calculated on the basis of the total amount of compound dissolved in the organic solvent). […]

[4] = H2O, 20 °C, 24 hrs; cited from earlier work

SMILES	IC50 (SH-SY5Y NB cells; 24 h, read-out: IC50 24 h) [µM]	IC50 (SH-SY5Y NB cells; 48 h, read-out: IC50 48 h) [µM]	IC50 (SH-SY5Y NB cells; 72 h, read-out: IC50 72 h) [µM]	Metabolic Stability [1] [%]	PAMPA [2]	MR (Membrane Retention) [2] [%]	Ki (Src) [µM]	drug loading [3]	Aqueous Solubility [4]
CC(C)Sc1nc(Nc2cccc(O)c2)c2cnn(CC(Cl)c3ccccc3)c2n1 (stereo not shown) [Compound 4]	13.6 ± 0.94	10.1 ± 0.5	8.63 ± 0.75	93.5	4.53 10^−6 cm^2/sec	49.6	0.01	50%	0,90 μg/mL
CSc1nc(NCc2ccccc2)c2cnn(CC(Cl)c3ccccc3)c2n1 (stereo not shown) [Compound 1]	21.8 ± 1.7	16.5 ± 1.67	13.5 ± 2	95.8	3.98 10^−6 cm^2/sec	46.8	–	around 6%	0,21 μg/mL
ClC(Cn1ncc2c(Nc3cccc(Br)c3)nc(SCCN3CCOCC3)nc21)c1ccccc1 (stereo not shown) [Compound 2]	12.6 ± 1.6	2.66 ± 0.015	2.28 ± 0.29	96.0	–	–	0.13	50%	–
CC(Cn1ncc2c(Nc3cccc(Cl)c3)nc(SCCN3CCOCC3)nc21)c1ccccc1 (stereo not shown) [Compound 3]	3.04 ± 0.09	2.65 ± 0.08	1.54 ± 1.07	97.9	5.51 10^−6 cm^2/sec	48.9	0.4	–	0,22 μg/mL
